According to article PMC9343605, “Structural insights into ligand recognition and selectivity of somatostatin receptors” (Cell Research, 2022):

Experiments:
SSTR4 = SSTR4 (Homo sapiens, UniProt P31391, Y276A); assay: Whole cell binding assay, SSTR4, competition with 125I-Tyr11-SST14, CHO-K1; set-up: expressed in transfected cells; details: SSTR4 mutant Y276^6.52A; mean ± SEM
SSTR2 [1] = biological target: SSTR2 (Homo sapiens, UniProt P30874, F275A); assay: cAMP accumulation assay (agonist-induced inhibition of forskolin-stimulated cAMP), SSTR2, HEK293F; assay type: cell-based; set-up: expressed in transfected cells; host or cells: HEK293F; details: SSTR2 mutant F275^6.54A; mean ± SEM;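 further: transiently transfected cells exposed to 2 µM forskolin and a ligand concentration series for 40 min at room temperature in IBMX-containing HBSS, then cAMP quantified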
Protocol: (§1) HEK293F cells were transiently transfected with WT or mutant SSTR2/SSTR4 using transfection reagent (PEI MAX 2000, Polysciences) and incubated at 37 °C in 5% CO2. Forty-eight hours after transfection, cells were centrifuged and resuspended in stimulation buffer (Hanks’ balanced salt solution (HBSS) supplemented with 5 mM HEPES, 0.5 mM IBMX and 0.1% (w/v) bovine serum albumin (BSA), pH 7.4) to a density of 200,000 cells/mL and added to 384-well white plates (PerkinElmer, 1000 cells/well). cAMP accumulation was measured by a LANCE Ultra cAMP kit (PerkinElmer) according to the manufacturer’s instructions. In brief, transfected cells were incubated for 40 min in stimulation buffer with 2.5 μL forskolin (SSTR2: 2 μM; SSTR4: 4 μM) and gradient concentration of ligand at RT. The reactions were stopped by addition of lysis buffer containing 5 μL Eu-cAMP tracer and 5 μL ULight-anti-cAMP. Plates were then incubated for 60 min at RT and time-resolved FRET signals were measured at 620 nm and 665 nm by an EnVision multilabel plate reader (PerkinElmer). Data were analyzed in GraphPad PRISM 8 and all values were normalized to the WT for each ligand. All outcomes were repeated at least three times.
(§2) aMutants represent that mutations were introduced separately into the WT receptors and
(§3) transiently expressed in HEK 293F cells.
(§4) bThe EC50 ratio was shown as EC50(mutant)/EC50(WT), indicating the shift between the WT
(§5) and mutant curves, reflecting the effect of the mutations on receptor signaling.
(§6) cData are shown as mean ± S.E.M. from at least three independent experiments
(§7) performed in technical triplicate. One-way ANOVA was performed followed by
(§8) Dunnett’s post-test and compared with WT. The P value was defined as: *P<0.05;
(§9) d The span is defined as the window between the maximal agonists response (Emax) and
(§10) e Sample size; the number of independent experiments performed in technical triplicate.
(§11) f Receptor expression level of HEK 293F cells was determined independently by flow
(§12) cytometry with anti-FLAG antibody and shown as per cent compared to the WT.

SSTR2 [2] = biological target: SSTR2 (Homo sapiens, UniProt P30874, D122A); assay: as above; assay type: cell-based; set-up: expressed in transfected cells; host or cells: HEK293F; details: SSTR2 mutant D122^3.32A; mean ± SEM
Protocol: as §1, §2, §3, §4, §5, §6, §7, §8, §9, §10, §11, §12

SSTR2 [3] = biological target: SSTR2 (Homo sapiens, UniProt P30874, T194A); assay: as above; assay type: cell-based; set-up: expressed in transfected cells; host or cells: HEK293F; details: SSTR2 mutant T194^ECL2A; mean ± SEM
Protocol: as §1, §2, §3, §4, §5, §6, §7, §8, §9, §10, §11, §12

SSTR2 [4] = biological target: SSTR2 (Homo sapiens, UniProt P30874, F272A); assay: as above; assay type: cell-based; set-up: expressed in transfected cells; host or cells: HEK293F; details: SSTR2 mutant F272^6.51A; mean ± SEM
Protocol: as §1, §2, §3, §4, §5, §6, §7, §8, §9, §10, §11, §12

SSTR2 [5] = biological target: SSTR2 (Homo sapiens, UniProt P30874, T212A); assay: as above; assay type: cell-based; set-up: expressed in transfected cells; host or cells: HEK293F; details: SSTR2 mutant T212^5.42A; mean ± SEM
Protocol: as §1, §2, §3, §4, §5, §6, §7, §8, §9, §10, §11, §12

SSTR2 [6] = biological target: SSTR2 (Homo sapiens, UniProt P30874, Q102A); assay: as above; assay type: cell-based; set-up: expressed in transfected cells; host or cells: HEK293F; details: SSTR2 mutant Q102^2.63A; mean ± SEM
Protocol: as §1, §2, §3, §4, §5, §6, §7, §8, §9, §10, §11, §12

SSTR2 [7] = biological target: SSTR2 (Homo sapiens, UniProt P30874, Y205A); assay: as above; assay type: cell-based; set-up: expressed in transfected cells; host or cells: HEK293F; details: SSTR2 mutant Y205^5.35A
Protocol: as §1, §2, §3, §4, §5, §6, §7, §8, §9, §10, §11, §12

SSTR2 [8] = biological target: SSTR2 (Homo sapiens, UniProt P30874, Y302A); assay: as above; assay type: cell-based; set-up: expressed in transfected cells; host or cells: HEK293F; details: SSTR2 mutant Y302^7.43A; mean ± SEM
Protocol: as §1, §2, §3, §4, §5, §6, §7, §8, §9, §10, §11, §12

SSTR2 [9] = biological target: SSTR2 (Homo sapiens, UniProt P30874, F294A); assay: as above; assay type: cell-based; set-up: expressed in transfected cells; host or cells: HEK293F; details: SSTR2 mutant F294^7.35A; mean ± SEM
Protocol: as §1, §2, §3, §4, §5, §6, §7, §8, §9, §10, §11, §12

SSTR2 [10] = biological target: SSTR2 (Homo sapiens, UniProt P30874); assay: as above; assay type: cell-based; set-up: expressed in transfected cells; host or cells: HEK293F; details: WT SSTR2
Protocol: as §1, §2, §3, §4, §5, §6, §7, §8, §9, §10, §11, §12

SSTR2 [11] = biological target: SSTR2 (Homo sapiens, UniProt P30874, Q126A); assay: as above; assay type: cell-based; set-up: expressed in transfected cells; host or cells: HEK293F; details: SSTR2 mutant Q126^3.36A; mean ± SEM
Protocol: as §1, §2, §3, §4, §5, §6, §7, §8, §9, §10, §11, §12

SSTR2 [12] = assay: as above; assay type: cell-based, human; details: EC50(mutant)/EC50(WT)
Protocol: as §1, §2, §3, §4, §5, §6, §7, §8, §9, §10, §11, §12

SSTR2 [13] = biological target: T1, SSTR2 (Homo sapiens, UniProt P30874, F208A); assay: as above; assay type: cell-based; details: SSTR2 mutant F208^5.38A; mean ± SEM
T1 construct: expressed in transfected cells; host or cells: HEK293F
Protocol: as §1, §2, §3, §4, §5, §6, §7, §8, §9, §10, §11, §12

SSTR2 [14] = biological target: T2, SSTR2 (Homo sapiens, UniProt P30874, S316D/V106E); assay: as above; assay type: cell-based; details: Construct 2* SSTR2; mean ± SEM
T2 construct: expressed in transfected cells; host or cells: HEK293F
Protocol: as §1, §2, §3, §4, §5, §6, §7, §8, §9, §10, §11, §12

SSTR2 [15] = biological target: T3, SSTR2 (Homo sapiens, UniProt P30874, N276A); assay: as above; assay type: cell-based; details: SSTR2 mutant N276^6.55A; mean ± SEM
T3 construct: expressed in transfected cells; host or cells: HEK293F
Protocol: as §1, §2, §3, §4, §5, §6, §7, §8, §9, §10, §11, §12

SSTR2 [16] = biological target: T4, SSTR2 (Homo sapiens, UniProt P30874, K291A); assay: as above; assay type: cell-based; details: SSTR2 mutant K291^7.32A; mean ± SEM
T4 construct: expressed in transfected cells; host or cells: HEK293F
Protocol: as §1, §2, §3, §4, §5, §6, §7, §8, §9, §10, §11, §12

SSTR2 [17] = biological target: T5, SSTR2 (Homo sapiens, UniProt P30874, I284A); assay: as above; assay type: cell-based; details: SSTR2 mutant I284^ECL3A; mean ± SEM
T5 construct: expressed in transfected cells; host or cells: HEK293F
Protocol: as §1, §2, §3, §4, §5, §6, §7, §8, §9, §10, §11, §12

SSTR2 [18] = biological target: T6, SSTR2 (Homo sapiens, UniProt P30874, P286A); assay: as above; assay type: cell-based; details: SSTR2 mutant P286^ECL3A; mean ± SEM
T6 construct: expressed in transfected cells; host or cells: HEK293F
Protocol: as §1, §2, §3, §4, §5, §6, §7, §8, §9, §10, §11, §12

SSTR2 [19] = biological target: T7, SSTR2 (Homo sapiens, UniProt P30874, V298A); assay: as above; assay type: cell-based; details: SSTR2 mutant V298^7.39A; mean ± SEM
T7 construct: expressed in transfected cells; host or cells: HEK293F
T7 sequence (P30874 whole entry V298A): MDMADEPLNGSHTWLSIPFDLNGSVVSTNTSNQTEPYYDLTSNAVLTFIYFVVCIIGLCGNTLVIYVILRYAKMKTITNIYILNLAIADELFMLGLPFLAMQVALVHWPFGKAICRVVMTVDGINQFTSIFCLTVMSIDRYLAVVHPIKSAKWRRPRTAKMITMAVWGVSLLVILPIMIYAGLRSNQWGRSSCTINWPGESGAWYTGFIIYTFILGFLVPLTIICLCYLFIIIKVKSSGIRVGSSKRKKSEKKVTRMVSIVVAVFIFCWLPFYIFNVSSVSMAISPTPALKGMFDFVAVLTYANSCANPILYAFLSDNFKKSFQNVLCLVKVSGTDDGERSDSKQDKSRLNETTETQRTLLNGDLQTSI
Protocol: as §1, §2, §3, §4, §5, §6, §7, §8, §9, §10, §11, §12

SSTR2 (Homo sapiens, UniProt P30874), sequence (P30874 whole entry): as the sequence (P30874 whole entry V298A) above, with A298V counted along it
SSTR2 (Homo sapiens, UniProt P30874, Y205A), sequence (P30874 whole entry Y205A): as the sequence (P30874 whole entry V298A) above, with Y205A, A298V counted along it
SSTR2 (Homo sapiens, UniProt P30874, F275A), sequence (P30874 whole entry F275A): as the sequence (P30874 whole entry V298A) above, with F275A, A298V counted along it
SSTR2 (Homo sapiens, UniProt P30874, F294A), sequence (P30874 whole entry F294A): as the sequence (P30874 whole entry V298A) above, with F294A, A298V counted along it
SSTR2 (Homo sapiens, UniProt P30874, T212A), sequence (P30874 whole entry T212A): as the sequence (P30874 whole entry V298A) above, with T212A, A298V counted along it
SSTR2 (Homo sapiens, UniProt P30874, Y302A), sequence (P30874 whole entry Y302A): as the sequence (P30874 whole entry V298A) above, with A298V, Y302A counted along it
T2 sequence (P30874 1-359 V106E/S316D): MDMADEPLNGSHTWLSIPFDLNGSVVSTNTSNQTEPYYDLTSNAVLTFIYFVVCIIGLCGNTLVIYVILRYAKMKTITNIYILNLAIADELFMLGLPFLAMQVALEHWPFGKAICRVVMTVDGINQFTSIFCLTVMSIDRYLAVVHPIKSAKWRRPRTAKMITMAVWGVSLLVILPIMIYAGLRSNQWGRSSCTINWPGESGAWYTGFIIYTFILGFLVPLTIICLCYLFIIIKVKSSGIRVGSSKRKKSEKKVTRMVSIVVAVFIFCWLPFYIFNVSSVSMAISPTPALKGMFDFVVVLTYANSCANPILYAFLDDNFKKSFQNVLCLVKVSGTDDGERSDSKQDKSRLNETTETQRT
SSTR2 (Homo sapiens, UniProt P30874, Q126A), sequence (P30874 whole entry Q126A): as the sequence (P30874 whole entry V298A) above, with Q126A, A298V counted along it
SSTR2 (Homo sapiens, UniProt P30874, F272A), sequence (P30874 whole entry F272A): as the sequence (P30874 whole entry V298A) above, with F272A, A298V counted along it
SSTR2 (Homo sapiens, UniProt P30874, T194A), sequence (P30874 whole entry T194A): as the sequence (P30874 whole entry V298A) above, with T194A, A298V counted along it
T6 sequence (P30874 whole entry P286A): as the sequence (P30874 whole entry V298A) above, with P286A, A298V counted along it
SSTR2 (Homo sapiens, UniProt P30874, Q102A), sequence (P30874 whole entry Q102A): as the sequence (P30874 whole entry V298A) above, with Q102A, A298V counted along it
T1 sequence (P30874 whole entry F208A): as the sequence (P30874 whole entry V298A) above, with F208A, A298V counted along it
T3 sequence (P30874 whole entry N276A): as the sequence (P30874 whole entry V298A) above, with N276A, A298V counted along it
T5 sequence (P30874 whole entry I284A): as the sequence (P30874 whole entry V298A) above, with I284A, A298V counted along it
SSTR2 (Homo sapiens, UniProt P30874, D122A), sequence (P30874 whole entry D122A): as the sequence (P30874 whole entry V298A) above, with D122A, A298V counted along it
SSTR4, sequence (P31391 whole entry Y276A): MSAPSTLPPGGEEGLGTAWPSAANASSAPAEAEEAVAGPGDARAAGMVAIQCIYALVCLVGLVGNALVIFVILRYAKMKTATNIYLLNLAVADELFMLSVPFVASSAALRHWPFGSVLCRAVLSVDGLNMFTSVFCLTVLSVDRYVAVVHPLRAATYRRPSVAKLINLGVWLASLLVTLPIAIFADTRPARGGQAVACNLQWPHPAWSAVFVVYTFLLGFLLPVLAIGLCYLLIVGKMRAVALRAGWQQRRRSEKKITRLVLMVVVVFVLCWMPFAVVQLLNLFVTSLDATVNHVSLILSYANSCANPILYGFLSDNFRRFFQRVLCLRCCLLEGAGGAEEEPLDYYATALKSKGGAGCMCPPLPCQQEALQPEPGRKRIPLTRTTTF
T4 sequence (P30874 whole entry K291A): as the sequence (P30874 whole entry V298A) above, with K291A, A298V counted along it

SMILES: Cc1ccc(S(=O)(=O)N[C@@H](CCN)C(=O)N[C@@H](Cc2ccccc2)C(N)=O)c2ccccc12 [J-2156]
- Span (SSTR4): 9±3 % of WT

SMILES: C[C@@H](c1c[nH]c2ccccc12)[C@@H](NC(=O)N1CCC(n2c(=O)[nH]c3ccccc32)CC1)C(=O)N[C@@H](CCCCN)C(=O)OC(C)(C)C [L-054,522]
- Span (SSTR2 [1]): 154±10 % of WT
- pEC50 ± SEM (SSTR2 [1]): 8.93±0.15
- Span (SSTR2 [2]): 41±6 % of WT
- pEC50 ± SEM (SSTR2 [2]): 7.37±0.27
- Span (SSTR2 [3]): 104±10 % of WT
- pEC50 ± SEM (SSTR2 [3]): 9.26±0.23
- Span (SSTR2 [4]): 215±18 % of WT
- pEC50 ± SEM (SSTR2 [4]): 7.85±0.19
- Span (SSTR2 [5]): 108±5 % of WT
- pEC50 ± SEM (SSTR2 [5]): 8.94±0.12
- Span (SSTR2 [6]): 79±6 % of WT
- pEC50 ± SEM (SSTR2 [6]): 9.46±0.18
- EC50 (SSTR2 [7]): 0.01 nM
- Span (SSTR2 [7]; mean ± SEM): 143±18 % of WT
- Span (SSTR2 [8]): 96±8 % of WT
- pEC50 ± SEM (SSTR2 [8]): 8.67±0.19
- Span (SSTR2 [9]): 95±8 % of WT
- pEC50 ± SEM (SSTR2 [9]): 8.36±0.20
- EC50 ratio (SSTR2 [10]; EC50(mutant)/EC50(WT)): 1
- pEC50 ± SEM (SSTR2 [10]; HEK293F, mean ± SEM, at least three independent experiments): 9.67±0.08
- Span (SSTR2 [10]; window between Emax and vehicle, mean ± SEM): 100±4 % of WT
- Span (SSTR2 [11]): 82±6 % of WT
- pEC50 ± SEM (SSTR2 [11]): 9.18±0.17
- EC50 ratio (SSTR2 [12]; Construct 2* SSTR2): 2
- EC50 ratio (SSTR2 [12]; SSTR2 mutant D122^3.32A): 191
- EC50 ratio (SSTR2 [12]; SSTR2 mutant F208^5.38A): 2
- EC50 ratio (SSTR2 [12]; SSTR2 mutant F272^6.51A): 64
- EC50 ratio (SSTR2 [12]; SSTR2 mutant F275^6.54A): 5
- EC50 ratio (SSTR2 [12]; SSTR2 mutant F294^7.35A): 20
- EC50 ratio (SSTR2 [12]; SSTR2 mutant I284^ECL3A): 4
- EC50 ratio (SSTR2 [12]; SSTR2 mutant K291^7.32A): 4
- EC50 ratio (SSTR2 [12]; SSTR2 mutant N276^6.55A): 15
- EC50 ratio (SSTR2 [12]; SSTR2 mutant P286^ECL3A): 7
- EC50 ratio (SSTR2 [12]; SSTR2 mutant Q102^2.63A): 2
- EC50 ratio (SSTR2 [12]; SSTR2 mutant Q126^3.36A): 3
- EC50 ratio (SSTR2 [12]; SSTR2 mutant T194^ECL2A): 3
- EC50 ratio (SSTR2 [12]; SSTR2 mutant T212^5.42A): 5
- EC50 ratio (SSTR2 [12]; SSTR2 mutant V298^7.39A): 10
- EC50 ratio (SSTR2 [12]; SSTR2 mutant Y205^5.35A): 0.05
- EC50 ratio (SSTR2 [12]; SSTR2 mutant Y302^7.43A): 10
- Span (SSTR2 [13]): 81±5 % of WT
- pEC50 ± SEM (SSTR2 [13]): 9.34±0.13
- Span (SSTR2 [14]): 76±6 % of WT
- pEC50 ± SEM (SSTR2 [14]): 9.28±0.17
- Span (SSTR2 [15]): 80±5 % of WT
- pEC50 ± SEM (SSTR2 [15]): 8.47±0.15
- pEC50 ± SEM (SSTR2 [16]): 9.02±0.12
- Span (SSTR2 [17]): 84±7 % of WT
- pEC50 ± SEM (SSTR2 [17]): 9.07±0.22
- Span (SSTR2 [18]): 96±7 % of WT
- pEC50 ± SEM (SSTR2 [18]): 8.83±0.18
- Span (SSTR2 [19]): 131±9 % of WT
- pEC50 ± SEM (SSTR2 [19]): 8.68±0.16
